# From patent US10034462B2, “Animal model of nash-induced hepatocellular carcinoma and methods for developing specific therapeutics” (THE REGENTS OF THE UNIVERSITY OF CALIFORNIA, priority 2015, dated 2018)
# Tests used:
# [1] = system: primary hepatocytes from WT and MUP-uPA mice; assay: PA-induced lipotoxic cell death in primary hepatocytes (Cell Counting Kit-8 cell viability); type: cell-based; details: for PA-induced cell death (cell viability): 300 μM PA for 24 hr with 500 μM TUDCA or 1 mM 4-PBA, WT and MUP-uPA hepatocytes
# Procedure: (§1) Cell viability was assessed using Cell Counting Kit-8 assay. Data are means±S.D. of triplicate wells. *p<0.05. […] CHOP expression, SREBP1 maturation, and JNK phosphorylation were assessed by IB. FIGS. 4C-4D show the effect of GRP78 overexpression. MUP-uPA hepatocytes were infected with adenoviruses encoding LacZ or GRP78 and then incubated with PA. SREBP1 maturation (FIG. 4C) and cell viability (FIG. 4D) were assessed as above. […] Data are means±S.D. of triplicate wells. *p<0.05. FIGS. 4F-4I show the effect of TUDCA on NASH in HFD-fed MUP-uPA mice. 16 week old HFD-fed MUP-uPA mice were i.p. injected with TUDCA (250 mg/kg) or vehicle, and after 4 weeks of daily treatment, liver histology (scale bar=100 μm) (FIG. 4F), serum ALT (FIG. 4G), liver TG (FIG. 4H) and liver cholesterol (FIG. 4I) were evaluated. Bar graphs are means±S.D. (n=5 per group). *p<0.05. See also FIGS. 11A-11M.
# To examine whether ER stress enhances lipotoxicity in MUP-uPA hepatocytes, we incubated WT and MUP-uPA hepatocytes with PA.
# [2] = system: HFD-fed MUP-uPA mice; assay: Effect of TUDCA on NASH in HFD-fed MUP-uPA mice; type: in vivo, mouse
# Procedure: as §1, with “FIGS. 4A-4I are pictorial and graphical diagrams showing that chemical chaperons attenuate lipotoxicity and liver damage in MUP-uPA mice. […] Cell viability” for “Cell viability”
# FIGS. 11A-11M are pictorial and graphical diagrams showing the effects of TUDCA and GRP78 overexpression and CHOP ablation on NASH and HCC development. FIGS. 11A and 11B show cell death and ROS accumulation in livers of TUDCA- or vehicle-treated HFD-fed MUP-uPA mice were examined by TUNEL (FIG. 11A) and DHE staining (FIG. 11B), respectively (scale bar=100 μm). […] CHOP protein expression in whole liver and mature SREBP1 in the nuclear fraction were examined by IB analysis. Shown are three individual livers per condition. FIGS. 11D and 11E show the effects of GRP78 overexpression. HFD-fed MUP-uPA mice were intravenously injected with 1×10^9 pfu of Ad-LacZ or Ad-GRP78. After 6 days the mice (n=6 per group) were sacrificed and hepatic steatosis was analyzed by H&E staining (scale bar=100 μm) (FIG. 11D) and GRP78 expression was determined by IB analysis (FIG. 11E). […] Data are means±S.D. (n=3 per group). […] FIGS. 11H-11K show the effect of hepatocyte CHOP ablation on tumor development and severity of NASH in HFD-fed MUP-uPA mice at 40 weeks of age. […] Results are means±S.E.M. (Chop^F/F/MUP-uPA, n=17; Chop^Δhep/MUP-uPA, n=11). *p<0.05. […] Data are means±S.D. (n=5-6 per group).
# FIGS. 12A-12F are pictorial and graphical diagrams showing characteristics of Tnfr1^−/−/MUP-uPA mice. FIGS. 12A and 12B show the effect of 4 weeks TUDCA treatment on HFD-fed MUP-uPA mouse liver. IHC of F4/80 (scale bar=100 μm) (FIG. 12A) and TNF mRNA expression (FIG. 12B). Data are means±S.D. (n=5 per group). *p<0.05. […] Data are presented as means±S.D. (n=3 per group). […] Data are presented as means±S.D. (n=5 per group). […] Results are shown as means±S.D.
# Hepatic lipids were extracted with chloroform/methanol (2:1 v/v), and TG and total cholesterol contents were measured with Triglyceride Reagent Set (Pointe Scientific) and Cholesterol E (Wako), respectively. FA composition was analyzed by gas-chromatography at SRL Inc., Tokyo, Japan.
# Livers were fixed in 10% neutral-buffered formalin or 4% paraformaldehyde, embedded in paraffin, sectioned, and stained with hematoxylin and eosin (H&E), Sirius Red, and processed for IHC. For frozen block preparation, tissue was embedded in Tissue-Tek OCT compound (Sakura Finetek). IHC and IF analyses were described (He et al., 2013). Stained areas were quantitated with Image J software. Slides were incubated with primary antibodies, followed by secondary antibodies labeled with Alexa488 or Alexa594 (Molecular Probes). TUNEL staining was performed using an Apoalert DNA Fragmentation Assay kit (Clontech). Accumulation of superoxide anions was examined by DHE staining (Sakurai et al., 2008). Tissue sample preparation and EM analysis were described (Lee et al., 2012).
# We examined the effect of TUDCA on NASH development. We initiated daily i.p. injections of TUDCA (250 mg/kg) or phosphate-buffered saline (PBS; vehicle control) to HFD-fed MUP-uPA mice at 16 weeks of age. […]
# [3] = system: LFD or HFD-fed WT mice; assay: Tunicamycin-induced ER stress and liver damage in LFD- or HFD-fed WT mice; type: in vivo, mouse
# From the text: FIGS. 10A-10J are pictorial and graphical diagrams showing that ER stress is sustained by HFD in MUP-uPA mice. […] Arrows indicate dilated ER (scale bar=1 μm). […] Representative images of livers and H&E (FIG. 10D) and TUNEL (FIG. 10E) staining of liver sections prepared 36 hrs later (scale bar=100 μm). […] Data are means±S.D. (n=3-4 per group). […] All bar graphs represent means±S.D. n=3 per group). *p<0.05.
# Although the mechanism responsible for hepatocyte death in young MUP-uPA mice is not entirely clear, their hepatocytes are ER stressed (Sandgren et al., 1991). Indeed, several ER stress markers, including CHOP, GRP78, spliced XBP1 (sXBP1), phosphorylated (p) eIF2α, p-IRE1α and p-JNK, were elevated in 5 weeks old MUP-uPA mice compared with WT (FIGS. 3A and 10A). While most markers declined in 16 week old MUP-uPA mice, paralleling the decline in uPA expression, HFD-fed MUP-uPA mice maintained strong eIF2α and JNK phosphorylation and CHOP expression, (FIGS. 3B and 10A). In WT mice, HFD feeding induced only a slight elevation in p-eIF2α and CHOP mRNA with no effect on CHOP protein (FIG. 3B). Immunohistochemistry (IHC) confirmed nuclear CHOP in hepatocytes of 5 weeks old MUP-uPA mice, which was sustained at 16 weeks of age only in HFD-fed MUP-uPA mice (FIG. 3C). […] After 24 weeks of HFD, expression of the […] ligand TRAIL was also elevated in the MUP-uPA liver. […] Thus, whereas ER stress appears to be induced by uPA expression in 5 weeks old MUP-uPA mice, it declines due to transgene extinction. However, feeding these mice with HFD re-kindles the stress response and induces several cell death mediators that are not expressed in HFD-fed WT mice. To determine whether ER stress can cause ballooning degeneration and hepatocyte death, we injected HFD-fed WT mice with the protein glycosylation inhibitor and ER stress elicitor tunicamycin. This treatment led to rapid (36 hrs) induction of ballooning degeneration, hepatocyte apoptosis and ALT release only in HFD-fed mice (FIGS. 10D-10F).
# [4] = system: primary hepatocytes from WT and MUP-uPA mice; assay: Immunoblot of CHOP expression, SREBP1 maturation and JNK phosphorylation in PA-treated primary hepatocytes; type: cell-based, mouse
# Procedure: as §1, with “FIGS. 4A-4I are pictorial and graphical diagrams showing that chemical chaperons attenuate lipotoxicity and liver damage in MUP-uPA mice. […] Cell viability” for “Cell viability”
# Primary hepatocytes were isolated (He et al., 2013) and cultured in William's E medium with 10% FBS on collagen-coated plates. PA (Sigma) was dissolved in ethanol at 50° C. and then diluted in bovine serum albumin-containing RPMI-1640 medium that was applied to primary hepatocytes at a final concentration of 200 (to analyze signal transduction) or 300 (to analyze cell death) μM.
# Immunoblotting and real-time Q-PCR were described (Maeda et al., 2005). Antibodies used were against: phospho-ERK, ERK1/2, phospho STAT3, STAT3, phospho-JNK, JNK1/2, phospho-S6, S6, p65, cyclinD1, YAP (all from Cell Signaling); K19, GRP78, SREBP1, CHOP, CCL7, TNFR1 (all from Santa Cruz Biotechnology); phospho-eIF2α (Upstate); tubulin (Sigma); F4/80 (Molecular Probes); Ki67 (Gene Tex); AFP (Biocare Medical); TNF (R&D Systems); B220 (BD Pharmingen). TUDCA and 4-PBA were from Calbiochem and Sigma, respectively. GSH:GSSG ratio was analyzed using GSSG/GSH Quantification Kit (Dojindo).
# To examine whether ER stress enhances lipotoxicity in MUP-uPA hepatocytes, we incubated WT and MUP-uPA hepatocytes with PA. […] PA increased CHOP expression and SREBP1 maturation in WT hepatocytes, but these effects were more pronounced in MUP-uPA hepatocytes, which expressed both proteins prior to PA addition (FIG. 4B). To examine the contribution of ER stress to these phenomena, we treated hepatocytes with the chemical chaperons 4-phenylbutyrate (4-PBA) and tauro-ursodeoxycholic acid (TUDCA), which reduce ER stress (Ozcan et al., 2006).
# [5] = 250 mg/kg i.p. daily for 4 weeks from 16 weeks of age, vs PBS vehicle
# [6] = 250 mg/kg i.p. daily for 4 weeks, vs vehicle
# [7] = HFD-fed WT mice, 1.25 mg/kg i.p., 36 hrs, only in HFD-fed mice
# [8] = 200 μM PA, WT hepatocytes, more pronounced in MUP-uPA hepatocytes
compound,measurement,setting,value
"C[C@H](CCC(=O)NCCS(=O)(=O)O)[C@H]1CC[C@H]2[C@@H]3[C@@H](O)C[C@@H]4C[C@H](O)CC[C@]4(C)[C@H]3CC[C@]12C [TUDCA, tauroursodeoxycholic acid]",PA-induced cell death (cell viability),[1],attenuated PA-induced cell death
same,hepatic TG,[2]; [5],significantly reduced
same,hepatic cholesterol,[2]; [5],significantly reduced
same,hepatocyte ballooning (liver histology),[2]; [5],attenuated
same,hepatosteatosis (liver histology),[2]; [5],attenuated
same,serum ALT,[2]; [5],significantly reduced
same,SREBP1 maturation in liver (IB),"[2]; 250 mg/kg i.p. daily for 4 weeks, nuclear fraction",inhibited
same,ROS accumulation (DHE staining),[2]; [6],suppressed
same,hepatocyte death (TUNEL),[2]; [6],suppressed
same,CHOP expression in liver (IB),"[2]; 250 mg/kg i.p. daily for 4 weeks, whole liver",inhibited
same,TNF expression in liver (mRNA),[2]; 4 weeks TUDCA treatment,inhibited
same,macrophage infiltration in liver (F4/80 IHC),[2]; 4 weeks TUDCA treatment,inhibited
tunicamycin,liver steatosis (gross appearance of liver),"[3]; HFD-fed WT mice, 1.25 mg/kg i.p., 36 hrs",more steatotic
same,ALT release (serum ALT),[3]; [7],induction
same,ballooning degeneration,[3]; [7],induction
same,hepatocyte apoptosis (TUNEL),[3]; [7],induction
same,liver damage by tunicamycin alone,"[3]; short term, by itself (without HFD)",did not damage the liver
"CCCCCCCCCCCCCCCC(=O)O [PA, palmitic acid]",lipotoxic cell death caused by PA,"[1]; 300 μM PA, after 24 hrs, more extensive in MUP-uPA hepatocytes",lipotoxic cell death was seen in both WT and MUP-uPA hepatocytes
same,CHOP expression caused by PA,[4]; [8],increased
same,SREBP1 maturation caused by PA,[4]; [8],increased
same,JNK activation by PA,"[4]; 200 μM PA, effect restricted to WT hepatocytes",activated
"O=C(O)CCCc1ccccc1 [4-PBA, 4-phenylbutyric acid]",PA-induced cell death (cell viability),[1],attenuated PA-induced cell death
same,CHOP induction upon PA treatment,"[4]; 200 μM PA with 1 mM 4-PBA, IB",reduced
same,JNK phosphorylation upon PA treatment,"[4]; 200 μM PA with 1 mM 4-PBA, IB",only partially reduced
same,SREBP1 maturation upon PA treatment,"[4]; 200 μM PA with 1 mM 4-PBA, IB",reduced
